Data as given in patent publication US11944637B2, “Biomaterials comprising hyaluronic acid binding peptides and extracellular matrix binding peptides for hyaluronic acid retention and tissue engineering applications” (THE JOHNS HOPKINS UNIVERSITY, priority 2013, dated 2024).
No end group written: not given here.

Tests used:
articular cartilage = experiment: Visualization of the HA-bound layer with biotinylated HA on cartilage covalently modified with HABPep; type: binding, bovine; conditions: after washing, compared to unmodified cartilage incubated with HA-biotin alone
Description: C-HABPep was conjugated to articular cartilage through a heterobifunctional poly(ethylene glycol) (PEG) spacer. Maleimide-PEG-N-hydroxysuccinimide (MAL-PEG-NHS, 3.5 kDa, Jenkem Technologies), which has functionalities that are thiol- and amine-reactive, was dissolved to 5 mM in 50 mM sodium bicarbonate, pH 7.5 and added to the articular surface. The NHS groups were allowed to react with endogenous amines on the cartilage surface for 30 minutes. PEGylation was confirmed by attenuated total reflectance Fourier transform IR spectroscopy (ATR-FTIR; Bruker Vector 22 with a Pike Miracle ATR attachment). Following thorough washes in buffer to remove unreacted crosslinker, a 1.5 mM solution of C-HABPep was added to the surface to react with maleimide groups for an additional 30 minutes. Surfaces were carefully washed to remove unreacted peptide, yielding a cartilage surface with covalently attached HA-binding functionality. Visualization of the HA-bound layer. Cartilage was conjugated with C-HABPep and incubated with biotinylated HA synthesized as previously described. Briefly, HA (975 kDa) was dissolved in 50 mM boric acid, pH 5.2 at 2 mg/ml. This was combined with biotin hydrazide (Sigma) in a 20:1 weight ratio. […] The reaction was allowed to proceed at room temperature for 16 hours, after which it was dialyzed to remove unreacted biotin hydrazide and EDC. […]

collagen I = collagen I (Homo sapiens, UniProt P02452+P08123); experiment: Binding of collagen binding peptides conjugated to PEG-fluorescein on a thin coating of collagen I on TCP (fluorescence); conditions: for Normalized fluorescence intensity on collagen I coating: after washing, FIG. 2D, 2K; for Fluorescence intensity, binding on collagen I coating: compared to control and scrambled peptide, FIG. 2C, 2J
Chain of collagen I (P02452 162-1218 limits assumed): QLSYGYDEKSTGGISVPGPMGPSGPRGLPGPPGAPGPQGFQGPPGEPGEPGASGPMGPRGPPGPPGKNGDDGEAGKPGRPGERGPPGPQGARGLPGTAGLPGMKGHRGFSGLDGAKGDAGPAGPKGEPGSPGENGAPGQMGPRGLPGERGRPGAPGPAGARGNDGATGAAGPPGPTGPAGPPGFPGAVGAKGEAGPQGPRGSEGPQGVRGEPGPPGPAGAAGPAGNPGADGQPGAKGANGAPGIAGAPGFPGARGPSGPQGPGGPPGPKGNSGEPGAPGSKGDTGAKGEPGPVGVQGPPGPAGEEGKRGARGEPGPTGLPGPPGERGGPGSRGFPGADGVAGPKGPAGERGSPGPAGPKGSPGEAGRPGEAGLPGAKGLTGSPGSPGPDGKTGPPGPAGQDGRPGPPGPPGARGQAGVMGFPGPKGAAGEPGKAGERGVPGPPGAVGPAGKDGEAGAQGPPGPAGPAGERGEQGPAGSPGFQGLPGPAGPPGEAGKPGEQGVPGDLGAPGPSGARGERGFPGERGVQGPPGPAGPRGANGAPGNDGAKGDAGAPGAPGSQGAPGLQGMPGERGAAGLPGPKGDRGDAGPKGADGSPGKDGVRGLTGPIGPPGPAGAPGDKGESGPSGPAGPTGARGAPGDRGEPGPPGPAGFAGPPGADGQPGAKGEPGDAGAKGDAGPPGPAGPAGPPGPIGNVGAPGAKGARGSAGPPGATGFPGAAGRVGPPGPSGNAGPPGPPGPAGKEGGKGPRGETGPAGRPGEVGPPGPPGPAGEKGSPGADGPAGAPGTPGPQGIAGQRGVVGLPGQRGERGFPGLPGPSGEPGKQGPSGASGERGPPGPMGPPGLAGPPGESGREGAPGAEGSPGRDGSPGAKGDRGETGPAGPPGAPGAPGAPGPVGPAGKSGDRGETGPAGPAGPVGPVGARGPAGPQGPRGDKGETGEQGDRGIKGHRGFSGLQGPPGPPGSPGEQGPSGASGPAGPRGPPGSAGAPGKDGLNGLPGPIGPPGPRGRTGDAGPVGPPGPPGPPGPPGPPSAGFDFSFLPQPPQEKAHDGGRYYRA
Chain of collagen I (P08123 80-1119 limits assumed): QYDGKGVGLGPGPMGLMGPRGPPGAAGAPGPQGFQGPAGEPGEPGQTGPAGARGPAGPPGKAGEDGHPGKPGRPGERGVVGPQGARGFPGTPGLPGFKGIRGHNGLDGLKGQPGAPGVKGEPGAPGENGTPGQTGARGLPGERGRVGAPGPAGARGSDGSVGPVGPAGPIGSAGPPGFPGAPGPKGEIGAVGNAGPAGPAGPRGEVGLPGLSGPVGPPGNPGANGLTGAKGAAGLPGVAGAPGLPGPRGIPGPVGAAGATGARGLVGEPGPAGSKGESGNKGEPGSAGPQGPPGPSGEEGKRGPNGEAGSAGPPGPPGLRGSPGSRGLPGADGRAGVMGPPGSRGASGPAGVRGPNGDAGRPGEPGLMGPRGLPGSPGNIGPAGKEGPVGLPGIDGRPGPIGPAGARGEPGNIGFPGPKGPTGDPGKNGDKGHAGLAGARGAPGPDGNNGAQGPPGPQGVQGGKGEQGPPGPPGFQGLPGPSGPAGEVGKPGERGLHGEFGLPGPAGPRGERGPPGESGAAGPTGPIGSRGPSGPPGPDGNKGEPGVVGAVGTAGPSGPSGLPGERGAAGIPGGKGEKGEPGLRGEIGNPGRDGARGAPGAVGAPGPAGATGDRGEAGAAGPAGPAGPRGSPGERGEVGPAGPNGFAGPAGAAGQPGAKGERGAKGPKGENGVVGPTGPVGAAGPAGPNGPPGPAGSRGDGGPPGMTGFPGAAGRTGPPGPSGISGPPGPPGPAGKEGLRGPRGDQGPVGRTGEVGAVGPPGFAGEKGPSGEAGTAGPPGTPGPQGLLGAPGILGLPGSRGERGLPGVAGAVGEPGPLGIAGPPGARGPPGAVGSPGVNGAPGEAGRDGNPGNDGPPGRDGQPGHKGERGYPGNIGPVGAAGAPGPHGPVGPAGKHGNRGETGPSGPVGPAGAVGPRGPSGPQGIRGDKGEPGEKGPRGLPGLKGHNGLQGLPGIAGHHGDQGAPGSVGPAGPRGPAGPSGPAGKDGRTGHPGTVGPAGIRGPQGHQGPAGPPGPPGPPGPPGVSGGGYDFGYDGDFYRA
Text: (§1) FIGS. 2A-2K depict the clinically-relevant, non-covalent strategy, for one-step application of HA binding polymer system on tissue surface of the present invention. 2A, The first step in this strategy for coating a tissue surface is the reaction of a maleimide-PEG-NHS crosslinker with primary amines of the HA-binding peptide. Subsequently, peptides that non-covalently bind to ECM components, such as collagen I and collagen II, also having a thiol end group, is reacted to the maleimide. Finally, this polymer-peptide system of the present invention is mixed with an HA solution that binds to the peptide-polymer system, which on a single application makes a biomaterial-HA coating on the tissue surface. The binding of the collagen binding peptides were analyzed on thin coatings of collagen I and II on polystyrene tissue culture plates. A thin coating of collagen I on TCP with: 2B, i) No peptide, only PEG-fluorescein as a control, ii) scrambled collagen I binding peptide conjugated to PEG-fluorescein, iii) collagen I binding peptide conjugated to PEG-fluorescein, iv) scrambled collagen II binding peptide conjugated to PEG-fluorescein, v) collagen II binding peptide conjugated to PEG-fluorescein. […] A thin coating of collagen II on TCP with: 2G, i) No peptide, only PEG-fluorescein as a control, ii) scrambled collagen I binding peptide conjugated to PEG-fluorescein, iii) collagen I binding peptide conjugated to PEG-fluorescein, iv) scrambled collagen II binding peptide conjugated to PEG-fluorescein, v) collagen II binding peptide conjugated to PEG-fluorescein.
(§2) Second, a clinically relevant one-step injection/coating technology of the present invention was developed based on non-covalent binding of the HABpeptide-polymer system. Tissue surfaces, including, for example, articular cartilage, conjunctiva and sclera of an eye, are collagen I and II enriched, and can act as stable anchoring sites for the ECM binding peptides (ECMBPep). The HA-binding peptide that is linked to the ECMBPep through the PEG spacer can recapture HA that is lost through a physical or biological mechanism and can dynamically bind and concentrate HA where it is needed. Specifically, amine functionality of Col I and II ECMBPep were reacted with NHS-PEG-MAL followed by conjugation of C-HABPep to the Maleimide end groups. The resultant biomaterial composition of the present invention is mixed with HA and applied to tissue surfaces in a single step (FIG. 2A).

collagen II = collagen II (Homo sapiens, UniProt P02458); experiment: Binding of collagen binding peptides conjugated to PEG-fluorescein on a thin coating of collagen II on TCP (fluorescence); conditions: for Normalized fluorescence intensity on collagen II coating: after washing, FIG. 2F, 2I; for Fluorescence intensity, binding on collagen II coating: compared to control and scrambled peptide, FIG. 2E, 2H
Chain of collagen II (P02458 182-1241 limits assumed): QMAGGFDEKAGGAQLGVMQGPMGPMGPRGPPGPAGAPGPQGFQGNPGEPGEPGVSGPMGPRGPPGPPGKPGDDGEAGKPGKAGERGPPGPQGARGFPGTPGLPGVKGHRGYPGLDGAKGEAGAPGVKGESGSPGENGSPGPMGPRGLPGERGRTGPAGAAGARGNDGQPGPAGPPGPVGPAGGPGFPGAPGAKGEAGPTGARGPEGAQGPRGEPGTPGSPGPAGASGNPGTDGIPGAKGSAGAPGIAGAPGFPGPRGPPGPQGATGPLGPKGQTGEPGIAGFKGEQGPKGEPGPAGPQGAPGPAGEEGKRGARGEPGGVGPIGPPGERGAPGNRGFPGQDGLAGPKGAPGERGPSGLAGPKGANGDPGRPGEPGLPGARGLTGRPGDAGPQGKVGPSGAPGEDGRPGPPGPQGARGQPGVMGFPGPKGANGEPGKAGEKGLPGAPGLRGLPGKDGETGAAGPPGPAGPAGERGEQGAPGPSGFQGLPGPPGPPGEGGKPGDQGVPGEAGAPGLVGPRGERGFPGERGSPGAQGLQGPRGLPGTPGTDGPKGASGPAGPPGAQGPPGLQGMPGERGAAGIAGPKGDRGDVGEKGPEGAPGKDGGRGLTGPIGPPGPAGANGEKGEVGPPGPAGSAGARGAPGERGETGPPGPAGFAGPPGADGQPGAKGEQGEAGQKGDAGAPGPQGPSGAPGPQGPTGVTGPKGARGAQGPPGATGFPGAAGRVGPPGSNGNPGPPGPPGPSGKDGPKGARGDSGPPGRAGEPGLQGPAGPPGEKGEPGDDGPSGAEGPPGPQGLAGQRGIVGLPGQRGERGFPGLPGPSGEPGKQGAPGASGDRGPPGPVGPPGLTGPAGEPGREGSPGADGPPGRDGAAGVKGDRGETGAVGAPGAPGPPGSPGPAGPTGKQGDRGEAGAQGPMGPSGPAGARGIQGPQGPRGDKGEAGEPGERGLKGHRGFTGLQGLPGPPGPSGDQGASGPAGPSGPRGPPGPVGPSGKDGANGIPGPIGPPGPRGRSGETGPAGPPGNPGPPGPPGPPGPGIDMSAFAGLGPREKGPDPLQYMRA
Text: as §1, §2

[1] = system: normal human articular cartilage; experiment: Lubrication testing (cartilage-on-cartilage friction), normal cartilage
Description: (§3) Cartilage sample preparation for lubrication testing. Cartilage samples were prepared for lubrication testing as a modification on previously published protocols (Arthritis and rheumatism 56, 882-891, (2007); Arthritis and rheumatism 50, 516-525, (2004)). Both normal and osteoarthritis tissue samples were ordered through (NDRI, Philadelphia, PA). Tissue samples were received within 24 hours post-mortem or surgery. Normal and diseased samples were received in a sterile container containing Dulbecco's Modified Eagle Medium (DMEM), and protease inhibitor cocktail. Biopsy punches were used to isolate cylindrical disks (radius=6 mm) and annuli (outer radius=4 mm, inner radius=1.5 mm) with small holes punctured through the cylinder walls to improve fluid depressurization. Due to the 24-hour time point in media washing for 24-hours to eliminate any lubricin, HA, and SAPLs; instead samples were washed for 4-6 hours in PBS on a shaker. HA sample groups were always incubated in HA solution (5 mg/mL) for 24-hours post-washing (FIGS. 4b,c). It should be noted that human cartilage was scarce especially in OA samples received.
In later experiments, covalent modification of cartilage surface by HABpep (FIG. 1) was performed on bovine articular cartilage samples. All non-covalent HABpep modification and in vitro lubrication studies were performed using human articular cartilage samples (FIG. 3). Normal human tissue was isolated from cadavers […]. Human OA cartilage samples were isolated from the patients with ages, 58 (F), 60 (F), 61 (M), 65 (M), 69 (M), 71 (F), who underwent total knee arthroplasty. Care was taken to avoid damaging the articular surface during dissection. Samples (outer diameter=8.0 mm, inner diameter=3.0 mm) were microtomed and evenly cut to obtain a flat surface. The superficial layer was maintained intact and only the deep layer of cartilage was cut to obtain a flat layer to glue to the metal counter-surface while friction measurements. Cartilage was used fresh without freezing or the addition of protease inhibitors so as not to change the surface lubrication properties. Samples were washed vigorously in PBS overnight to deplete the cartilage surface of any residual synovial fluid, after which they were functionalized with an HA-binding layer as needed and incubated at 4° C. for about 24 hours in the test lubricant. […]
(§4) Lubrication testing. […] The samples were bathed in the test lubricant, measured with digital calipers, compressed to 82% of their original combined height, and preconditioned by rotating 2 revolutions in each direction at an effective sliding velocity of 3 mm/s, which is defined as the angular velocity times the effective radius of the annulus Reff=2/3[(Ro3−Ri3)/(Ro2−Ri2)]=2.94 mm. […]

[2] = system: human OA cartilage (severely damaged, OA stage 3-4); experiment: Lubrication testing (cartilage-on-cartilage friction), OA cartilage
Description: as §3, with “HA sample groups were always incubated in HA solution (5 mg/mL) for 24-hours post-washing (FIGS. 4b,c). It should be noted that human cartilage was scarce especially in OA samples received.” left out
as §4

[3] = normal cartilage without coating, tested in HA bath
[4] = normal cartilage, HA bath compared to PBS bath

| Normalized fluorescence intensity on collagen I coating (collagen I) | Fluorescence intensity, binding on collagen I coating (collagen I) | Normalized fluorescence intensity on collagen II coating (collagen II) | Fluorescence intensity, binding on collagen II coating (collagen II) | Substance | other results |
| --- | --- | --- | --- | --- | --- |
|  |  |  |  | CRRDDGAHWQFNALTVR (SEQ ID NO: 2) (thiol; MAL-PEG-NHS conjugated to cartilage; listed as Homo sapiens) [HA-binding polymer coating] | Staining of bound biotinylated HA (streptavidin, horseradish peroxidase) (articular cartilage): stained darker; Staining of bound biotinylated HA (streptavidin, horseradish peroxidase) (articular cartilage; listed as C-HABPep): greater intensity of staining |
| did not bind | no significant binding | 1.65 times to that of scrambled peptide | significant binding | WYRGRL (SEQ ID NO: 4) (also: PEG-fluorescein conjugate; listed as Homo sapiens) [collagen II binding peptide, ECMBPep for collagen II; tested conjugated to PEG-fluorescein] |  |
| 1.55 times to that of scrambled peptide | significant binding | did not bind | no significant binding | YSFYSDESLQ (SEQ ID NO: 3) (also: PEG-fluorescein conjugate; listed as Homo sapiens) [collagen I binding peptide, ECMBPep for collagen I; tested conjugated to PEG-fluorescein] |  |
|  |  |  |  | hyaluronic acid [HA] | <μk> kinetic friction [1, 3]: 0.008; <μs> static friction [1, 3]: 0.018; decrease of kinetic total friction value [1, 4]: 72%; decrease of static total friction value [1, 4]: 35%; static lubricity value (<μ> in PBS-<μ> in HA), most severely damaged OA samples vs normal cartilage ([2]; FIG. 4w): approximately 5 times; kinetic lubricity value (<μ> in PBS-<μ> in HA), most severely damaged OA samples vs normal cartilage ([2]; FIG. 4x): approximately 5 times |
